In ChEMBL document CHEMBL1156023, “Grassystatins A-C from marine cyanobacteria, potent cathepsin E inhibitors that reduce antigen presentation” (J Med Chem, 2009):
Square brackets hold non-standard residues; d marks the D form. Peptide text beside a SMILES is read from it. * marks the point of attachment. Sta = CC(C)C[C@H](N)[C@@H](O)CC(=O)O; NMe2Val = CC(C)[C@@H](C(=O)*)N(C)C; dNMeF = CN[C@H](Cc1ccccc1)C(=O)O; dHiv = CC(C)[C@@H](O)C(=O)O; Hiv = CC(C)[C@H](O)C(=O)O

Tests used:
Caspase-1 (Homo sapiens) = Caspase-1 (Homo sapiens) (UniProt P29466); assay: Inhibition of caspase 1 assessed as residual activity at 10 uM after 10 to 15 mins by fluorescence assay relative to control
[1] = target: Urokinase-type plasminogen activator (Homo sapiens) (UniProt P00749); assay: Inhibition of urokinase assessed as residual activity at 10 uM after 10 to 15 mins by fluorescence assay relative to control
[2] = target: Pro-cathepsin H (Homo sapiens) (UniProt P09668); assay: Inhibition of cathepsin H assessed as residual activity at 10 uM after 10 to 15 mins by fluorescence assay relative to control
Chain of Pro-cathepsin H (Homo sapiens) (P09668 116-335 limits assumed, other chains not shown): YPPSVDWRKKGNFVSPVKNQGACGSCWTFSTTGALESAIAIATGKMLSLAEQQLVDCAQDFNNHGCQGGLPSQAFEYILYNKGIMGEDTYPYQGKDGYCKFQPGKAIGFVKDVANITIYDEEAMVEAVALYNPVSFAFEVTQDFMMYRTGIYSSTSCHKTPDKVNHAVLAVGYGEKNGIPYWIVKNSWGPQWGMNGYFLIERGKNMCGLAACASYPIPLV

Collagenase 3 [3] = target: T1, Collagenase 3 (Homo sapiens, UniProt P45452); assay: Inhibition of MMP13 assessed as residual activity at 10 uM after 10 to 15 mins by fluorescence assay relative to control
Caspase-4 = Caspase-4 (Mus musculus, UniProt P70343); assay: Inhibition of mouse caspase 11 after 10 to 15 mins by fluorescence assay
[4] = target: Prothrombin (Homo sapiens) (UniProt P00734); assay: Inhibition of thrombin alpha assessed as residual activity at 10 uM after 10 to 15 mins by fluorescence assay relative to control
[5] = target: Kallikrein-5 (Homo sapiens) (UniProt Q9Y337); assay: Inhibition of kallikrein 5 assessed as residual activity at 10 uM after 10 to 15 mins by fluorescence assay relative to control
[6] = target: Disintegrin and metalloproteinase domain-containing protein 17 (Homo sapiens, UniProt P78536); settings: 5.08 to 100000 nM
Chain of Disintegrin and metalloproteinase domain-containing protein 17 (P78536 whole entry, the tested form may be a part): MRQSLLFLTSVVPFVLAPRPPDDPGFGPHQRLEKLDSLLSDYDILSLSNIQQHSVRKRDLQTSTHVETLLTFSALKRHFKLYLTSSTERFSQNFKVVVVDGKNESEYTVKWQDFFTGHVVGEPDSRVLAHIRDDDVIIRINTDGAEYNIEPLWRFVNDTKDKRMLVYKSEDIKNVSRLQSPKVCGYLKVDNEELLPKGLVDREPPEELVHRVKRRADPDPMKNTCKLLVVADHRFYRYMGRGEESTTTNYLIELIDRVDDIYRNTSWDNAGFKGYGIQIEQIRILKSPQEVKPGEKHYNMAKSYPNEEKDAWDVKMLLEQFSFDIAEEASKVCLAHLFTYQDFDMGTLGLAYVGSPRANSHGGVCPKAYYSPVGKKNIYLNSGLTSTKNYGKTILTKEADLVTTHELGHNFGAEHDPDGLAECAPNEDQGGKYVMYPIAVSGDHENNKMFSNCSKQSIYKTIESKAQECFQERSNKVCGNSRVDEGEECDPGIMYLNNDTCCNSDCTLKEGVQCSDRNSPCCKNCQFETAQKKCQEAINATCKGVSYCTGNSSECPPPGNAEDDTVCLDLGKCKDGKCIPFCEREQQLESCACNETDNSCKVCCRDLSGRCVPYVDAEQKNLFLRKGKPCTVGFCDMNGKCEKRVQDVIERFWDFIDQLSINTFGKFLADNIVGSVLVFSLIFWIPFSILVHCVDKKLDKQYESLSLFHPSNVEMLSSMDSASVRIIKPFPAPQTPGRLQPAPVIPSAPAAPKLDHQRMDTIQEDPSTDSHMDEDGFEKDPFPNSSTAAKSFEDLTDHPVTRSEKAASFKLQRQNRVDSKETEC

Caspase-3 (Homo sapiens) = Caspase-3 (Homo sapiens) (UniProt P42574); assay: Inhibition of caspase 3 assessed as residual activity at 10 uM after 10 to 15 mins by fluorescence assay relative to control
Chain of Caspase-3 (Homo sapiens) (P42574 29-175 limits assumed): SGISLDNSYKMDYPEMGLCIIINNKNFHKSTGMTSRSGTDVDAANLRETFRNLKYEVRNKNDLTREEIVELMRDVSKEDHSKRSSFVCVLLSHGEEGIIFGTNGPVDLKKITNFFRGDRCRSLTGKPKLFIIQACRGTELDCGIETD
Chain of Caspase-3 (Homo sapiens) (P42574 176-277 limits assumed): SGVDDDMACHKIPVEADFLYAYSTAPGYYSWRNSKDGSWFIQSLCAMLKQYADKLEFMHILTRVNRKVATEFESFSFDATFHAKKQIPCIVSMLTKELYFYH

[7] = target: Dipeptidyl peptidase 4 (Homo sapiens) (UniProt P27487); assay: Inhibition of DPP4 assessed as residual activity at 10 uM after 10 to 15 mins by fluorescence assay relative to control
Chain of Dipeptidyl peptidase 4 (Homo sapiens) (P27487 whole entry, looked up): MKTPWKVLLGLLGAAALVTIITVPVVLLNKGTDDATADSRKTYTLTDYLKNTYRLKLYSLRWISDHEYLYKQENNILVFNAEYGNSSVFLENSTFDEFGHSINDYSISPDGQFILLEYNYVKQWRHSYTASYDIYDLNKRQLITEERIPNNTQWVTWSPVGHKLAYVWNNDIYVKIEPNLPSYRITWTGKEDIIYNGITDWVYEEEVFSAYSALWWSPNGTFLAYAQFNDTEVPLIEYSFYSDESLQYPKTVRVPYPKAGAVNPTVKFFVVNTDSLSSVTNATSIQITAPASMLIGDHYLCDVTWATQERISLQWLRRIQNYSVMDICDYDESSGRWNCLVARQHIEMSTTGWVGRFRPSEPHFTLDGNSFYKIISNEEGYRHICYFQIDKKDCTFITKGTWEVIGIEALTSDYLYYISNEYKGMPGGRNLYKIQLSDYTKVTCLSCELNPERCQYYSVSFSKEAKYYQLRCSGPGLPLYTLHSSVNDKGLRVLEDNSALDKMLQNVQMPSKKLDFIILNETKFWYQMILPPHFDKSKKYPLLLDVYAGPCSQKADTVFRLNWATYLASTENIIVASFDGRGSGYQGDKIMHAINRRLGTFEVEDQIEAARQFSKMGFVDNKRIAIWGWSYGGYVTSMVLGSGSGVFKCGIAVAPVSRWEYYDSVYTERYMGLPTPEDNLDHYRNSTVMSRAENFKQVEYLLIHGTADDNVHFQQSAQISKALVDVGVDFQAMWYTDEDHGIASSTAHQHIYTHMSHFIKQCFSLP

Caspase-2 = Caspase-2 (Homo sapiens, UniProt P42575); assay: Inhibition of caspase 2 after 10 to 15 mins by fluorescence assay
Renin = Renin (Homo sapiens, UniProt P00797); assay: Inhibition of human renin after 10 to 15 mins by fluorescence assay
Neutrophil collagenase = Neutrophil collagenase (Homo sapiens, UniProt P22894); assay: Inhibition of MMP8 assessed as residual activity at 10 uM after 10 to 15 mins by fluorescence assay relative to control
Chain of Neutrophil collagenase (P22894 101-467 limits assumed): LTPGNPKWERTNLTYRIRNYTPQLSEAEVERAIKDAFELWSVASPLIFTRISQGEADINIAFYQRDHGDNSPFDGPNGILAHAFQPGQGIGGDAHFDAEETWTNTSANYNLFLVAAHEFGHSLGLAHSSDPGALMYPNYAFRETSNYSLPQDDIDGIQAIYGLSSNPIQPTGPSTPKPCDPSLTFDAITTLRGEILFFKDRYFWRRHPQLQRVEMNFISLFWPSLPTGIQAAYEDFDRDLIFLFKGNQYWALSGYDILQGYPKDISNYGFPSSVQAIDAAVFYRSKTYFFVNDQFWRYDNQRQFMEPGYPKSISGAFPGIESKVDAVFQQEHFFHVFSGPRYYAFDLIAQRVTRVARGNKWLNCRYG

[8] = target: Plasma kallikrein (Homo sapiens) (UniProt P03952); assay: Inhibition of plasma kallikrein assessed as residual activity at 10 uM after 10 to 15 mins by fluorescence assay relative to control; assay type: cell-free
Chain of Plasma kallikrein (Homo sapiens) (P03952 20-390 limits assumed): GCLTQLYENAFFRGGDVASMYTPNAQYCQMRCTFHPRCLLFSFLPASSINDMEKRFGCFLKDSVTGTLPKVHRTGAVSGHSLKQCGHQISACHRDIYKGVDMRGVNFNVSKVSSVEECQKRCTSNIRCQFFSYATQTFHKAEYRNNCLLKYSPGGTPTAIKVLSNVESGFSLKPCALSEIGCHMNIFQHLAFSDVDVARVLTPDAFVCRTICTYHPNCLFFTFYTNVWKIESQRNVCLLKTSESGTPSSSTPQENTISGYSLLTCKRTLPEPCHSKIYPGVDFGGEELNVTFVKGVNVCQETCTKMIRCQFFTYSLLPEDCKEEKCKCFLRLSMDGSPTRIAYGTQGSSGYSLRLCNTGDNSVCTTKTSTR
Chain of Plasma kallikrein (Homo sapiens) (P03952 391-638 limits assumed): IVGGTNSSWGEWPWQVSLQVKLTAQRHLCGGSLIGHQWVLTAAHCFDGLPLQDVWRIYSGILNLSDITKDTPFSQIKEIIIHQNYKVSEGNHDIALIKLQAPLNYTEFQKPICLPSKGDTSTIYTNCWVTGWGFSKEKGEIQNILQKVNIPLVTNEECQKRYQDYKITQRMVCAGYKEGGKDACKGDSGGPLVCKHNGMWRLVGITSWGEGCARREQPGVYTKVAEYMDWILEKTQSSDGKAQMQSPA

Papain (Carica papaya) = Papain (Carica papaya) (UniProt P00784); assay: Inhibition of papaya papain assessed as residual activity at 10 uM after 10 to 15 mins by fluorescence assay relative to control
[9] = target: Vitamin K-dependent protein C (Homo sapiens, UniProt P04070); assay: Inhibition of activated protein C after 10 to 15 mins by fluorescence assay in presence of 50% […]
Chain of Vitamin K-dependent protein C (P04070 43-197 limits assumed): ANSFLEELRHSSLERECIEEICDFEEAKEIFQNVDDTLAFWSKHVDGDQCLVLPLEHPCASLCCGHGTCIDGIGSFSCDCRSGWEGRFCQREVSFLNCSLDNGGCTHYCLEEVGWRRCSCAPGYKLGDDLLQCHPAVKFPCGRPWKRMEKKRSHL
Chain of Vitamin K-dependent protein C (P04070 212-461 limits assumed): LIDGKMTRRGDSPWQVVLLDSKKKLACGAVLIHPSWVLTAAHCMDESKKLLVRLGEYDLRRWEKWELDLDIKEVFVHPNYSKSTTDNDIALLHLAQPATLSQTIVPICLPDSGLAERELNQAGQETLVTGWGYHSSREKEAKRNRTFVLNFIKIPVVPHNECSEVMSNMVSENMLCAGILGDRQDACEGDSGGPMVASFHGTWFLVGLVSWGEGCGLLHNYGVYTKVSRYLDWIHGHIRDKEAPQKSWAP

[10] = target: Matrix metalloproteinase-9 (Homo sapiens, UniProt P14780); assay: Inhibition of MMP9 catalytic domain after 10 to 15 mins by fluorescence assay
[11] = target: Kallikrein-8 (Homo sapiens) (UniProt O60259); assay: Inhibition of kallikrein 8 assessed as residual activity at 10 uM after 10 to 15 mins by fluorescence assay relative to control
Stromelysin-1 = Stromelysin-1 (Homo sapiens, UniProt P08254); assay: Inhibition of MMP3 after 10 to 15 mins by fluorescence assay
Chain of Stromelysin-1 (P08254 whole entry): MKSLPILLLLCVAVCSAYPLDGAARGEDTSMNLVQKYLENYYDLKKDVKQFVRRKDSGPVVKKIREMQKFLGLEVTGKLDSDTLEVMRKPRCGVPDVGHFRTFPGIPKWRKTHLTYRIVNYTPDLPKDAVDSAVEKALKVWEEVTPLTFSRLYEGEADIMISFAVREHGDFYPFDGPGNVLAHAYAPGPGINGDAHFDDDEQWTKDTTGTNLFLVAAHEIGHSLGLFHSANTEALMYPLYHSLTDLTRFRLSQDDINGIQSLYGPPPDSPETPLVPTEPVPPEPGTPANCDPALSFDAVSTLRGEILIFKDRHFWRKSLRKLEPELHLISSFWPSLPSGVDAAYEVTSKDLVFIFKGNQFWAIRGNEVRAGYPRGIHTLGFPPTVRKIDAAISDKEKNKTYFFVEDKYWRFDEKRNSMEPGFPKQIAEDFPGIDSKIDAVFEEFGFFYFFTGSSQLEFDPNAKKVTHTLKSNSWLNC

[12] = target: Tryptase beta-1 (Homo sapiens) (UniProt Q15661); assay: Inhibition of tryptase beta2 assessed as residual activity at 10 uM after 10 to 15 mins by fluorescence assay relative to control
Chain of Tryptase beta-1 (Homo sapiens) (Q15661 31-275 limits assumed): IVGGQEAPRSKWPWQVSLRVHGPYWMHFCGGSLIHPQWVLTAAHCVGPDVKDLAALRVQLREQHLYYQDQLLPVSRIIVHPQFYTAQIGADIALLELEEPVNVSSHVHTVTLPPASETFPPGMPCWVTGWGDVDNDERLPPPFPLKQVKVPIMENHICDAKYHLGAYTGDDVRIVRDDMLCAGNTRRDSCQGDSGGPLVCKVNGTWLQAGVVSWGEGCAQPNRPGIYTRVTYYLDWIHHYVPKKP

[13] = target: 72 kDa type IV collagenase (Homo sapiens, UniProt P08253); assay: Inhibition of MMP2 after 10 to 15 mins by fluorescence assay
Collagenase 3 [14] = target: T1, Collagenase 3; assay: Inhibition of MMP13 catalytic domain after 10 to 15 mins by fluorescence assay
[15] = target: Cathepsin E (Homo sapiens) (UniProt P14091); settings: 5.08 to 100000 nM
Caspase-8 (Homo sapiens) = Caspase-8 (Homo sapiens) (UniProt Q14790); assay: Inhibition of caspase 8 assessed as residual activity at 10 uM after 10 to 15 mins by fluorescence assay relative to control
Caspase-7 (Homo sapiens) = Caspase-7 (Homo sapiens) (UniProt P55210); assay: Inhibition of caspase 7 assessed as residual activity at 10 uM after 10 to 15 mins by fluorescence assay relative to control
Caspase-4 (Mus musculus) = Caspase-4 (Mus musculus) (UniProt P70343); assay: Inhibition of mouse caspase 11 assessed as residual activity at 10 uM after 10 to 15 mins by fluorescence assay relative to control
[16] = target: Coagulation factor X (Homo sapiens) (UniProt P00742); assay: Inhibition of factor 10a assessed as residual activity at 10 uM after 10 to 15 mins by fluorescence assay relative to control
[17] = target: Serine protease 1 (Bos taurus) (UniProt P00760); assay: Inhibition of bovine pancreatic trypsin assessed as residual activity at 10 uM after 10 to 15 mins by fluorescence assay relative to control
Caspase-9 (Homo sapiens) = Caspase-9 (Homo sapiens) (UniProt P55211); assay: Inhibition of caspase 9 assessed as residual activity at 10 uM after 10 to 15 mins by fluorescence assay relative to control
[18] = target: Disintegrin and metalloproteinase domain-containing protein 10 (Homo sapiens) (UniProt O14672); assay: Inhibition of ADAM10 assessed as residual activity at 10 uM after 10 to 15 mins by fluorescence assay relative to control
[19] = target: Caspase-10 (Homo sapiens) (UniProt Q92851); assay: Inhibition of caspase 10 assessed as residual activity at 10 uM after 10 to 15 mins by fluorescence assay relative to control
Chain of Caspase-10 (Homo sapiens) (Q92851 220-415 limits assumed): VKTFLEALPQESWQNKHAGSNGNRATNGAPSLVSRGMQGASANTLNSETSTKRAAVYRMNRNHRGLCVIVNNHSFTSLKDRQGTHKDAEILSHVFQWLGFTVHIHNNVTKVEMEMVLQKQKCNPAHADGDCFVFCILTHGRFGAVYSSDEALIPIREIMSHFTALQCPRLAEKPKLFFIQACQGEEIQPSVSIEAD
Chain of Caspase-10 (Homo sapiens) (Q92851 416-521 limits assumed): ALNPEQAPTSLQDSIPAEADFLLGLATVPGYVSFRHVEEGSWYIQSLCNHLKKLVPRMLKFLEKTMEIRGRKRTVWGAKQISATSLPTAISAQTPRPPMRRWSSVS

[20] = target: Tryptase gamma (Homo sapiens) (UniProt Q9NRR2); assay: Inhibition of human lung tryptase gamma1 assessed as residual activity at 10 uM after 10 to 15 mins by fluorescence assay relative to control
Chain of Tryptase gamma (Homo sapiens) (Q9NRR2 38-321 limits assumed, other chains not shown): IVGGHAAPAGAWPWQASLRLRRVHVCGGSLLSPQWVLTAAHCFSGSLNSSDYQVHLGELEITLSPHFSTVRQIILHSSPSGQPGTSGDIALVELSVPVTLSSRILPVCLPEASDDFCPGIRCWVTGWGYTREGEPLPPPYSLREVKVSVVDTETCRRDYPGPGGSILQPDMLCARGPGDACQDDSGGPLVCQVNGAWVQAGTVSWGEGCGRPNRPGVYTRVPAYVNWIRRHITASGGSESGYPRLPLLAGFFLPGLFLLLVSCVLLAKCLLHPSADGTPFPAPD

COC(=O)[C@@H]1CCCN1C(=O)[C@@H](Cc1ccccc1)N(C)C(=O)[C@H](C)NC(=O)[C@@H](NC(=O)C[C@H](O)[C@H](CC(C)C)NC(=O)[C@H](CC(N)=O)NC(=O)[C@H](CC(C)C)NC(=O)[C@H](OC(=O)[C@@H](OC(=O)[C@H](C(C)C)N(C)C)C(C)C)C(C)C)[C@@H](C)O [GRASSYSTATIN A] (NMe2Val-[Hiv][dHiv]LN[Sta]TA[dNMeF]P-OMe)
Activity (Caspase-1 (Homo sapiens)): 90%
Activity [1]: 79%
Activity [2]: 80%
Activity (Collagenase 3 [3]): 75%
IC50 (Caspase-4): 5 µM
Activity [4]: 86%
Activity [5]: 84%
inhibition [6]: tde
Activity (Caspase-3 (Homo sapiens)): 63%
Activity [7]: 71%
IC50 (Caspase-2): 5 µM
IC50 (Renin): 50 µM
Activity (Neutrophil collagenase): 70%
Activity [8]: 78%
Activity (Papain (Carica papaya)): 101%
IC50 [9]: 50 µM
IC50 [10]: 5 µM
Activity [11]: 101%
IC50 (Stromelysin-1): 5 µM
Activity [12]: 74%
IC50 [13]: 5 µM
IC50 (Collagenase 3 [14]): 5 µM
inhibition [15]: tde
Activity (Caspase-8 (Homo sapiens)): 82%
Activity (Caspase-7 (Homo sapiens)): 62%
Activity (Caspase-4 (Mus musculus)): 60%
Activity [16]: 84%
Activity [17]: 77%
Activity (Caspase-9 (Homo sapiens)): 78%
Activity [18]: 0%
Activity [19]: 102%
Activity [20]: 80%
